Experimental data published in patent publication US10519152B2, “Compounds and their use in treating cancer” (AstraZeneca AB, priority 2017, dated 2019).

target: T1, recombinant human Estrogen Receptor alpha ligand binding domain, residues 307-554 (ER alpha-LBD (GST)) (Homo sapiens, UniProt P03372); experiment: ERα binding assay (LanthaScreen TR-FRET competition); details: TR-FRET competition with Fluormone ES2 tracer, 4 hours at room temperature; single experiment or average of two or more
T1 construct: made in house
T1 sequence (P03372 307-554): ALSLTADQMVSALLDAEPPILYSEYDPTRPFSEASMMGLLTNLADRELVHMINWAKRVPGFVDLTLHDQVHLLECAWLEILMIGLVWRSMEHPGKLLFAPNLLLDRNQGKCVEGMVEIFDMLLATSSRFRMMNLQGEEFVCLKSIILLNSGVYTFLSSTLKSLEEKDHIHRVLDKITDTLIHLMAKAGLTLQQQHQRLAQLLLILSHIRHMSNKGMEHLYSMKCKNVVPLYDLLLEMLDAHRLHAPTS

In order of rising IC50:
1. Cc1ncsc1-c1ccc([C@H](C)NC(=O)[C@@H]2C[C@@H](O)CN2C(=O)[C@@H](NC(=O)COCCOCCCCOc2cc(F)c([C@@H]3c4[nH]c5ccccc5c4C[C@@H](C)N3CC(C)(C)F)c(F)c2)C(C)(C)C)cc1 [Example 153, (2S,4R)-1-((S)-2-(2-(2-(4-(3,5-Difluoro-4-((1R,3R)-2-(2-fluoro-2-methylpropyl)-3-methyl-2,3,4,9-tetrahydro-1H-pyrido[3,4-b]indol-1-yl)phenoxy)butoxy)ethoxy)acetamido)-3,3-dimethylbutanoyl)-4-hydroxy-N—((S)-1-(4-(4-methylthiazol-5-yl)phenyl)ethyl)pyrrolidine-2-carboxamide]  300 pM
2. Cc1ncsc1-c1ccc(CNC(=O)[C@@H]2C[C@@H](O)CN2C(=O)[C@@H](NC(=O)CCCOCCCCCCOc2cc(F)c([C@@H]3c4[nH]c5ccccc5c4C[C@@H](C)N3CC(C)(C)F)c(F)c2)C(C)(C)C)cc1 [Example 112, (2S,4R)-1-((S)-2-(4-((6-(3,5-difluoro-4-((1R,3R)-2-(2-fluoro-2-methylpropyl)-3-methyl-2,3,4,9-tetrahydro-1H-pyrido[3,4-b]indol-1-yl)phenoxy)hexyl)oxy)butanamido)-3,3-dimethylbutanoyl)-4-hydroxy-N-(4-(4-methylthiazol-5-yl)benzyl)pyrrolidine-2-carboxamide]  500 pM
3. Cc1ncsc1-c1ccc([C@H](C)NC(=O)[C@@H]2C[C@@H](O)CN2C(=O)[C@@H](NC(=O)COCCOCCCCCOc2cc(F)c([C@@H]3c4[nH]c5ccccc5c4C[C@@H](C)N3CC(F)(F)F)c(F)c2)C(C)(C)C)cc1 [Example 140, (2S,4R)-1-((S)-2-(2-(2-((5-(3,5-Difluoro-4-((1R,3R)-3-methyl-2-(2,2,2-trifluoroethyl)-2,3,4,9-tetrahydro-1H-pyrido[3,4-b]indol-1-yl)phenoxy)pentyl)oxy)ethoxy)acetamido)-3,3-dimethylbutanoyl)-4-hydroxy-N—((S)-1-(4-(4-methylthiazol-5-yl)phenyl)ethyl)pyrrolidine-2-carboxamide]  500 pM
4. Cc1ncsc1-c1ccc(CNC(=O)[C@@H]2C[C@@H](O)CN2C(=O)[C@@H](NC(=O)CCCCCOCCCCOc2cc(F)c([C@@H]3c4[nH]c5ccccc5c4C[C@@H](C)N3CC(C)(C)F)c(F)c2)C(C)(C)C)cc1 [Example 109, (2S,4R)-1-((S)-2-(6-(4-(3,5-difluoro-4-((1R,3R)-2-(2-fluoro-2-methylpropyl)-3-methyl-2,3,49-tetrahydro-1H-pyrido[3,4-b]indol-1-yl)phenoxy)butoxy)hexanamido)-3,3-dimethylbutanoyl)-4-hydroxy-N-(4-(4-methylthiazol-5-yl)benzyl)pyrrolidine-2-carboxamide]  600 pM
5. Cc1ncsc1-c1ccc([C@H](C)NC(=O)[C@@H]2C[C@@H](O)CN2C(=O)[C@@H](NC(=O)COCCc2ccc(COc3cc(F)c([C@@H]4c5[nH]c6ccccc6c5C[C@@H](C)N4CC(C)(C)F)c(F)c3)nc2)C(C)(C)C)cc1 [Example 159, (2S,4R)-1-((S)-2-(2-(2-(6-((3,5-Difluoro-4-((1R,3R)-2-(2-fluoro-2-methylpropyl)-3-methyl-2,3,4,9-tetrahydro-1H-pyrido[3,4-b]indol-1-yl)phenoxy)methyl)pyridin-3-yl)ethoxy)acetamido)-3,3-dimethylbutanoyl)-4-hydroxy-N—((S)-1-(4-(4-methylthiazol-5-yl)phenyl)ethyl)pyrrolidine-2-carboxamide]  700 pM
6. Cc1ncsc1-c1ccc(CNC(=O)[C@@H]2C[C@@H](O)CN2C(=O)[C@@H](NC(=O)C2(OCCCCCCOc3cc(F)c([C@@H]4c5[nH]c6ccccc6c5C[C@@H](C)N4CC(C)(C)F)c(F)c3)CC2)C(C)(C)C)cc1 [Example 118, (2S,4R)-1-((S)-2-(1-((6-(3,5-difluoro-4-((1R,3R)-2-(2-fluoro-2-methylpropyl)-3-methyl-2,3,4,9-tetrahydro-1H-pyrido[3,4-b]indol-1-yl)phenoxy)hexyl)oxy)cyclopropane-1-carboxamido)-3,3-dimethylbutanoyl)-4-hydroxy-N-(4-(4-methylthiazol-5-yl)benzyl)pyrrolidine-2-carboxamide]  700 pM
7. Cc1ncsc1-c1ccc(CNC(=O)[C@@H]2C[C@@H](O)CN2C(=O)[C@@H](NC(=O)COCCCCOCCOc2cc(F)c([C@@H]3c4[nH]c5ccccc5c4C[C@@H](C)N3CC(C)(C)F)c(F)c2)C(C)(C)C)cc1 [Example 16, (2S,4R)-1-((S)-2-(2-(4-(2-(3,5-Difluoro-4-((1R,3R)-2-(2-fluoro-2-methylpropyl)-3-methyl-2,3,4,9-tetrahydro-1H-pyrido[3,4-b]indol-1-yl)phenoxy)ethoxy)butoxy)acetamido)-3,3-dimethylbutanoyl)-4-hydroxy-N-(4-(4-methylthiazol-5-yl)benzyl)pyrrolidine-2-carboxamide]  800 pM
8. Cc1ncsc1-c1ccc(CNC(=O)[C@@H]2C[C@@H](O)CN2C(=O)[C@@H](NC(=O)COCCc2ccc(COc3cc(F)c([C@@H]4c5[nH]c6ccccc6c5C[C@@H](C)N4CC(C)(C)F)c(F)c3)nc2)C(C)(C)C)cc1 [Example 158, (2S,4R)-1-((S)-2-(2-(2-(6-((3,5-Difluoro-4-((1R,3R)-2-(2-fluoro-2-methylpropyl)-3-methyl-2,3,4,9-tetrahydro-1H-pyrido[3,4-b]indol-1-yl)phenoxy)methyl)pyridin-3-yl)ethoxy)acetamido)-3,3-dimethylbutanoyl)-4-hydroxy-N-(4-(4-methylthiazol-5-yl)benzyl)pyrrolidine-2-carboxamide]  800 pM
9. Cc1ncsc1-c1ccc(CNC(=O)[C@@H]2C[C@@H](O)CN2C(=O)[C@@H](NC(=O)COCCCCCN(C)CCOc2cc(F)c([C@@H]3c4[nH]c5ccccc5c4C[C@@H](C)N3CC(C)(C)F)c(F)c2)C(C)(C)C)cc1 [Example 49, (2S,4R)-1-((S)-2-(2-((5-((2-(3,5-difluoro-4-((1R,3R)-2-(2-fluoro-2-methylpropyl)-3-methyl-2,3,4,9-tetrahydro-1H-pyrido[3,4-b]indol-1-yl)phenoxy)ethyl)(methyl)amino)pentyl)oxy)acetamido)-3,3-dimethylbutanoyl)-4-hydroxy-N-(4-(4-methylthiazol-5-yl)benzyl)pyrrolidine-2-carboxamide]  1000 pM
10. Cc1ncsc1-c1ccc(CNC(=O)[C@@H]2C[C@@H](O)CN2C(=O)[C@@H](NC(=O)CCCOc2cccc(COc3cc(F)c([C@@H]4c5[nH]c6ccccc6c5C[C@@H](C)N4CC(C)(C)F)c(F)c3)n2)C(C)(C)C)cc1 [Example 162, (2S,4R)-1-((S)-2-(4-((6-((3,5-Difluoro-4-((1R,3R)-2-(2-fluoro-2-methylpropyl)-3-methyl-2,3,4,9-tetrahydro-1H-pyrido[3,4-b]indol-1-yl)phenoxy)methyl)pyridin-2-yl)oxy)butanamido)-3,3-dimethylbutanoyl)-4-hydroxy-N-(4-(4-methylthiazol-5-yl)benzyl)pyrrolidine-2-carboxamide]  1100 pM
11. Cc1ncsc1-c1ccc(CNC(=O)[C@@H]2C[C@@H](O)CN2C(=O)[C@@H](NC(=O)COCCCCC(=O)N(C)CCOc2cc(F)c([C@@H]3c4[nH]c5ccccc5c4C[C@@H](C)N3CC(C)(C)F)c(F)c2)C(C)(C)C)cc1 [Example 143, (2S,4R)-1-((S)-2-(2-((5-((2-(3,5-Difluoro-4-((1R,3R)-2-(2-fluoro-2-methylpropyl)-3-methyl-2,3,4,9-tetrahydro-1H-pyrido[3,4-b]indol-1-yl)phenoxy)ethyl)(methyl)amino)-5-oxopentyl)oxy)acetamido)-3,3-dimethylbutanoyl)-4-hydroxy-N-(4-(4-methylthiazol-5-yl)benzyl)pyrrolidine-2-carboxamide]  1100 pM
12. Cc1ncsc1-c1ccc([C@H](C)NC(=O)[C@@H]2C[C@@H](O)CN2C(=O)[C@@H](NC(=O)C(F)(F)OCCOCCCCOc2cc(F)c([C@@H]3c4[nH]c5ccccc5c4C[C@@H](C)N3CC(C)(C)F)c(F)c2)C(C)(C)C)cc1 [Example 122, (2S,4R)-1-((S)-2-(2-(2-(4-(3,5-Difluoro-4-((1R,3R)-2-(2-fluoro-2-methylpropyl)-3-methyl-2,3,4,9-tetrahydro-1H-pyrido[3,4-b]indol-1-yl)phenoxy)butoxy)ethoxy)-2,2-difluoroacetamido)-3,3-dimethylbutanoyl)-4-hydroxy-N—((S)-1-(4-(4-methylthiazol-5-yl)phenyl)ethyl)pyrrolidine-2-carboxamide]  1500 pM
13. Cc1ncsc1-c1ccc(CNC(=O)[C@@H]2C[C@@H](O)CN2C(=O)[C@@H](NC(=O)COCCCCCCCOc2ccc([C@@H]3c4[nH]c5ccccc5c4C[C@@H](C)N3CC(F)F)nc2)C(C)(C)C)cc1 [Example 6, (2S,4R)-1-((S)-2-(2-((7-((6-((1S,3R)-2-(2,2-Difluoroethyl)-3-methyl-2,3,4,9-tetrahydro-1H-pyrido[3,4-b]indol-1-yl)pyridin-3-yl)oxy)heptyl)oxy)acetamido)-3,3-dimethylbutanoyl)-4-hydroxy-N-(4-(4-methylthiazol-5-yl)benzyl)pyrrolidine-2-carboxamide]  4200 pM
14. Cc1ncsc1-c1ccc(CNC(=O)[C@@H]2C[C@@H](O)CN2C(=O)[C@@H](NC(=O)COCCCOCCOc2ccc([C@@H]3c4[nH]c5ccccc5c4C[C@@H](C)N3CC(F)F)nc2)C(C)(C)C)cc1 [Example 26, (2S,4R)-1-((S)-2-(2-(3-(2-((6-((1S,3R)-2-(2,2-Difluoroethyl)-3-methyl-2,3,4,9-tetrahydro-1H-pyrido[3,4-b]indol-1-yl)pyridin-3-yl)oxy)ethoxy)propoxy)acetamido)-3,3-dimethylbutanoyl)-4-hydroxy-N-(4-(4-methylthiazol-5-yl)benzyl)pyrrolidine-2-carboxamide]  25000 pM
